Here are results for five molecules from US20200323999A1 (The Board of Trustees of the Leland Stanford Junior …, priority 2019, published 2020).

Data set [1] can be described thus: RF-acoustic signal characterization in tube phantom (433 MHz UHF-RF pulse). The note with it: salts 10 wt %, NaOH 4 wt %; 1 mm tubes.
Method: To determine the optimal composition of salt solutions for UHF-RF-acoustic contrast agents, five different salts were chosen, NaCl(aq), KI(aq), KCl(aq), MgCl2(aq), and CaCl2(aq) based on their ionic conductivity, solubility in water, and biocompatibility. NaOH(aq) was selected as a control because of its high ionic conductivity but low biocompatibility. […] Their UHF-RF-acoustic signals were measured using a prototype RF-acoustic tomography system with a nanosecond UHF-RF pulse at 433 MHz since this frequency is within the medical device radio-communications service band (MedRadio) (FIGS. 1B-1D). […] The generated RF-acoustic signals were collected by an ultrasound-linear-array transducer with a central frequency at 3.5 MHz that provides 1.2 mm imaging resolution on the transverse plane (FIGS. 1E-1F).
For comparison, a tube was included with only physiological saline (0.9 wt % of NaCl) to mimic RF-acoustic background of tissue. […]
A prototype RF-acoustic tomography imaging system (with main parts from Endra) was used to measure the RF-acoustic signal from the phantom and the mice. […] At each angle, 4095 pulses were recorded and averaged to improve the signal-to-noise ratio. […] The average energy density of a pulse at the target site was measured to be 1 mJ/cm^2, which is within the safety limit of tissue exposure. […] Acoustic signals were recorded by an ultrasound imaging system. […]
For data set [2] the following is noted: unit not given; cited from earlier work.

Consider `[Cl-].[Na+]` [NaCl, sodium chloride], for which, in data set [1], the “RF-acoustic signal of electrolyte solutions (comparison)” value is “weaker signals than KCl”. In the case of `[Na+].[OH-]` [NaOH(aq), sodium hydroxide, reference compound], the “RF-acoustic signal of electrolyte solutions (comparison)” value in data set [1] is recorded as “strongest RF-acoustic signal”. For `FC1(F)C(F)(F)C(F)(F)C2(F)C(F)(F)C(F)(F)C(F)(F)C(F)(F)C2(F)C1(F)F` (centres unmarked) [Perfluorodecalin, perfluorodecalin], the Water solubility in data set [2] is 9.90 × 10^−9. In the case of `FC(F)(F)C(F)(F)C(F)(F)C(F)(F)C(F)(F)C(F)(F)F` [Perfluorohexane, perfluorohexane], the Water solubility in data set [2] is reported as 2.70 × 10^−7. `FC(F)(F)C(F)(F)C(F)(F)C(F)(F)C(F)(F)F` [Perfluoropentane, perfluoropentane]: the Water solubility in data set [2] is reported as 4.00 × 10^−6.
